System: human gastric adenocarcinoma (AGS) cell line
Assay: MTT reduction assay, cell viability / cytotoxicity in AGS cell line
Format: cell-based
Conditions: AGS cell line, cell viability, MTT, 48 h incubation, mean ± SD; for viability at 50 µM: Homo sapiens, read-out: % CV at 50 µM
Experimental: The cytotoxicity was assessed in different cell lines with the endpoint MTT, using previously reported procedure. The following cells were obtained from the American Type Culture Collection: human embryonic kidney epithelial cell line (HEK 293T, ATCC HBT-22™), breast cancer cell line (MDA-MB-231, ATCC HTB-26™), osteosarcoma cell line (MG-63, ATCC CRL-1427™), gastric adenocarcinoma cell line (AGS, ATTC CRL-1739TM), prostate cancer cell line (DU-145, ATTC HTB-81™), and lung carcinoma cell line (A-549, ATCC CCL-185™). All cell lines were seeded at 2 × 10^4 cells/well with exception of A-549 cell line, which was seeded at 5 × 10^3 cells/well.

Row | SMILES | viability at 50 µM | % CV at 100 µM
1 | O=C1CC[C@]2(c3ccc(-c4ccc(O)cc4)cc3)OC[C@@H](Cc3c[nH]c4ccccc34)N12 [Compound 7p, (3R,7aR)-3-((1H-indol-3-yl)methyl)-7a-(4’-hydroxy-[1,1’-biphenyl]-4-yl)tetrahydropyrrolo[2,1-b]oxazol-5(6H)-one] | 56 ± 1% | –
2 | CC1CC(=O)N2C(Cc3c[nH]c4ccccc34)COC12c1ccc(Cl)cc1 (stereo not drawn) [Compound 7j] | 8% | –
3 | O=C1CC[C@@]2(c3ccc(Cl)cc3)OC[C@H](Cc3c[nH]c4ccccc34)N12 [Compound 8c, (3S,7aS)-3-((1H-indol-3-yl)methyl)-7a-(4-chlorophenyl)tetrahydropyrrolo[2,1-b]oxazol-5(6H)-one] | – | 11 ± 1%
4 | Cc1ccc([C@]23CCC(=O)N2[C@H](Cc2c[nH]c4ccccc24)CO3)cc1Cl [Compound 7h, (3R,7aR)-3-((1H-indol-3-yl)methyl)-7a-(3-chloro-4-methylphenyl)tetrahydropyrrolo[2,1-b]oxazol-5(6H)-one] | 11 ± 2% | –
5 | O=C1CC[C@@]2(c3ccc(F)cc3)OC[C@H](Cc3c[nH]c4ccccc34)N12 [Compound 8b, (3S,7aS)-3-((1H-indol-3-yl)methyl)-7a-(4-fluorophenyl)tetrahydropyrrolo[2,1-b]oxazol-5(6H)-one] | – | 22 ± 4%
6 | O=C1CC[C@]2(c3ccc(Br)cc3)OC[C@@H](Cc3c[nH]c4ccccc34)N12 [Compound 7d, (3R,7aR)-3-((1H-indol-3-yl)methyl)-7a-(4-bromophenyl)tetrahydropyrrolo[2,1-b]oxazol-5(6H)-one] | – | 14 ± 3%
7 | O=C1CC[C@]2(c3ccccc3)OC[C@@H](Cc3c[nH]c4ccccc34)N12 [Compound 7a, (3R,7aR)-3-((1H-indol-3-yl)methyl)-7a-phenyltetrahydropyrrolo[2,1-b]oxazol-5(6H)-one] | – | 50 ± 5%
8 | O=C1CC[C@]2(c3ccc(-c4ccc5c(c4)OCCO5)cc3)OC[C@@H](Cc3c[nH]c4ccccc34)N12 [Compound 7u, (3R,7aR)-3-((1H-indol-3-yl)methyl)-7a-(4-(2,3-dihydrobenzo[b][1, 4]dioxin-6-yl)phenyl)tetrahydropyrrolo[2,1-b]oxazol-5(6H)-one] | 67 ± 6% | –
9 | O=C1CC[C@]2(c3ccc(-c4cccc(Cl)c4)cc3)OC[C@@H](Cc3c[nH]c4ccccc34)N12 [Compound 7r, (3R,7aR)-3-((1H-indol-3-yl)methyl)-7a-(3’-chloro-[1,1’-biphenyl]-4-yl)tetrahydropyrrolo[2,1-b]oxazol-5(6H)-one] | 17 ± 1% | –
10 | O=C1CC[C@]2(c3ccc(F)cc3)OC[C@@H](Cc3c[nH]c4ccccc34)N12 [Compound 7b, (3R,7aR)-3-((1H-indol-3-yl)methyl)-7a-(4-fluorophenyl)tetrahydropyrrolo[2,1-b]oxazol-5(6H)-one] | – | 50 ± 8%
11 | COc1ccc([C@@]23CCC(=O)N2[C@@H](Cc2c[nH]c4ccccc24)CO3)cc1 [Compound 8f, (3S,7aS)-3-((1H-indol-3-yl)methyl)-7a-(4-methoxyphenyl)tetrahydropyrrolo[2,1-b]oxazol-5(6H)-one] | – | 30 ± 4%
12 | O=C1CC[C@]2(c3ccc(-c4ccncc4)cc3)OC[C@@H](Cc3c[nH]c4ccccc34)N12 [Compound 7t, (3R,7aR)-3-((1H-indol-3-yl)methyl)-7a-(4-(pyridin-4-yl)phenyl)tetrahydropyrrolo[2,1-b]oxazol-5(6H)-one] | 75 ± 14% | –
13 | CS(=O)(=O)c1ccc([C@]23CCC(=O)N2[C@H](Cc2c[nH]c4ccccc24)CO3)cc1 [Compound 7g, (3R,7aR)-3-((1H-indol-3-yl)methyl)-7a-(4-(methylsulfonyl)phenyl)tetrahydropyrrolo[2,1-b]oxazol-5(6H)-one] | – | 94 ± 12%
14 | O=C1CC[C@]2(c3ccc(Cl)cc3)OC[C@@H](Cc3c[nH]c4ccccc34)N12 [Compound 7c, (3R,7aR)-3-((1H-indol-3-yl)methyl)-7a-(4-chlorophenyl)tetrahydropyrrolo[2,1-b]oxazol-5(6H)-one] | 11 ± 1% | 6 ± 1%
15 | Cc1ccc([C@]23CCC(=O)N2[C@H](Cc2c[nH]c4ccccc24)CO3)cc1 [Compound 7e, (3R,7aR)-3-((1H-indol-3-yl)methyl)-7a-(p-tolyl)tetrahydropyrrolo[2,1-b]oxazol-5(6H)-one] | – | 14 ± 2%
16 | CS(=O)(=O)c1ccc([C@@]23CCC(=O)N2[C@@H](Cc2c[nH]c4ccccc24)CO3)cc1 [Compound 8g, (3S,7aS)-3-((1H-indol-3-yl)methyl)-7a-(4-(methylsulfonyl)phenyl)tetrahydropyrrolo[2,1-b]oxazol-5(6H)-one] | – | 91 ± 11%
17 | CC(=O)n1cc(C[C@@H]2CO[C@@]3(c4ccc(Cl)cc4)CCC(=O)N23)c2ccccc21 [Compound 7l, (3R,7aR)-3-((1-acetyl-1H-indol-3-yl)methyl)-7a-(4-chlorophenyl)tetrahydropyrrolo[2,1-b]oxazol-5(6H)-one] | 63 ± 13% | –
18 | O=C1CC[C@]2(c3ccc(-c4ccc(CO)cc4)cc3)OC[C@@H](Cc3c[nH]c4ccccc34)N12 [Compound 7q, (3R,7aR)-3-((1H-indol-3-yl)methyl)-7a-(4’-(hydroxymethyl)-[1,1’-biphenyl]-4-yl)tetrahydropyrrolo[2,1-b]oxazol-5(6H)-one] | 55 ± 1% | –
19 | COc1ccc([C@]23CCC(=O)N2[C@H](Cc2c[nH]c4ccccc24)CO3)cc1 [Compound 7f, (3R,7aR)-3-((1H-indol-3-yl)methyl)-7a-(4-methoxyphenyl)tetrahydropyrrolo[2,1-b]oxazol-5(6H)-one] | – | 18 ± 2%
20 | CC(C)(C)OC(=O)n1cc(C[C@@H]2CO[C@@]3(c4ccc(Cl)cc4)CCC(=O)N23)c2ccccc21 [Compound 7m, tert-butyl 3-(((3R,7aR)-7a-(4-chlorophenyl)-5-oxohexahydropyrrolo[2,1-b]oxazol-3-yl)methyl)-1H-indole-1-carboxylate] | 61 ± 9% | –
21 | O=C1CC[C@@]2(c3ccccc3)OC[C@H](Cc3c[nH]c4ccccc34)N12 [Compound 8a, (3S,7aS)-3-((1H-indol-3-yl)methyl)-7a-phenyltetrahydropyrrolo[2,1-b]oxazol-5(6H)-one] | – | 58 ± 4%
22 | COc1ccc([C@]23CCC(=O)N2[C@H](Cc2c[nH]c4ccccc24)CO3)cc1F [Compound 7i, (3R,7aR)-3-((1H-indol-3-yl)methyl)-7a-(3-fluoro-4-methoxyphenyl)tetrahydropyrrolo[2,1-b]oxazol-5(6H)-one] | 84 ± 7% | –
23 | Cc1ccc([C@@]23CCC(=O)N2[C@@H](Cc2c[nH]c4ccccc24)CO3)cc1 [Compound 8e, (3S,7aS)-3-((1H-indol-3-yl)methyl)-7a-(p-tolyl)tetrahydropyrrolo[2,1-b]oxazol-5(6H)-one] | – | 60 ± 3%
24 | O=C1CC[C@]2(c3ccc(-c4ccc(Cl)cc4)cc3)OC[C@@H](Cc3c[nH]c4ccccc34)N12 [Compound 7n, (3R,7aR)-3-((1H-indol-3-yl)methyl)-7a-(4’-chloro-[1,1’-biphenyl]-4-yl)tetrahydropyrrolo[2,1-b]oxazol-5(6H)-one] | 65 ± 13% | –
25 | O=C1CC[C@@]2(c3ccc(Br)cc3)OC[C@H](Cc3c[nH]c4ccccc34)N12 [Compound 8d, (3S,7aS)-3-((1H-indol-3-yl)methyl)-7a-(4-bromophenyl)tetrahydropyrrolo[2,1-b]oxazol-5(6H)-one] | – | 25 ± 4%
26 | CCn1cc(C[C@@H]2CO[C@@]3(c4ccc(Cl)cc4)CCC(=O)N23)c2ccccc21 [Compound 7k, (3R,7aR)-7a-(4-chlorophenyl)-3-((1-ethyl-1H-indol-3-yl)methyl)tetrahydropyrrolo[2,1-b]oxazol-5(6H)-one] | 40 ± 5% | –

— publication PMC8001353, “Tryptophanol-Derived Oxazolopyrrolidone Lactams as Potential Anticancer Agents against Gastric Adenocarcinoma” (Pharmaceuticals, 2021)
